Laboratory results published in the NIST ThermoML archive (doi:10.1016/j.jct.2015.02.008).

What was measured:
[1] = molar heat capacity at saturation pressure; settings: Vacuum adiabatic calorimetry
[2] = for molar entropy: 101.33 kPa, Vacuum adiabatic calorimetry
[3] = Molar enthalpy of transition or fusion; settings: Crystal; Adiabatic calorimetry

Oc1cccc2ccccc12 [1-naphthol]
Settings | Triple point temperature [K] | molar entropy [J/K/mol] | molar heat capacity [J/K/mol]
[1], 4.908 K, Crystal | – | – | 0.3991
[1], 5 K, Crystal | – | – | 0.4074
[1], 5.887 K, Crystal | – | – | 0.6735
[1], 6.773 K, Crystal | – | – | 0.9894
[1], 7.696 K, Crystal | – | – | 1.413
[1], 8.736 K, Crystal | – | – | 1.995
[1], 9.852 K, Crystal | – | – | 2.752
[1], 10 K, Crystal | – | – | 2.86
[1], 11.02 K, Crystal | – | – | 3.658
[1], 12.26 K, Crystal | – | – | 4.664
[1], 13.57 K, Crystal | – | – | 5.837
[1], 14.97 K, Crystal | – | – | 7.2
[1], 16.55 K, Crystal | – | – | 8.755
[1], 18.3 K, Crystal | – | – | 10.52
[1], 20 K, Crystal | – | – | 12.18
[1], 20.23 K, Crystal | – | – | 12.41
[1], 22.38 K, Crystal | – | – | 14.54
[1], 24.77 K, Crystal | – | – | 16.86
[1], 27.44 K, Crystal | – | – | 19.4
[1], 30 K, Crystal | – | – | 21.7
[1], 30.38 K, Crystal | – | – | 22.03
[1], 33.63 K, Crystal | – | – | 24.81
[1], 37.26 K, Crystal | – | – | 27.77
[1], 40 K, Crystal | – | – | 29.84
[1], 41.28 K, Crystal | – | – | 30.77
[1], 45.76 K, Crystal | – | – | 34.06
[1], 50 K, Crystal | – | – | 36.83
[1], 50.77 K, Crystal | – | – | 37.31
[1], 51.97 K, Crystal | – | – | 38.07
[1], 56.32 K, Crystal | – | – | 40.7
[1], 56.46 K, Crystal | – | – | 40.78
[1], 60 K, Crystal | – | – | 42.91
[1], 61.85 K, Crystal | – | – | 43.99
[1], 68.38 K, Crystal | – | – | 47.41
[1], 70 K, Crystal | – | – | 48.25
[1], 75.62 K, Crystal | – | – | 51.08
[1], 80 K, Crystal | – | – | 53.33
[1], 83.14 K, Crystal | – | – | 54.91
[1], 90 K, Crystal | – | – | 58.16
[1], 91.41 K, Crystal | – | – | 58.81
[1], 100 K, Crystal | – | – | 62.77
[1], 100.48 K, Crystal | – | – | 62.99
[1], 110.08 K, Crystal | – | – | 67.46
[1], 119.95 K, Crystal | – | – | 72.21
[1], 120 K, Crystal | – | – | 72.23
[1], 130.14 K, Crystal | – | – | 77.14
[1], 140 K, Crystal | – | – | 82.08
[1], 140.31 K, Crystal | – | – | 82.24
[1], 150.42 K, Crystal | – | – | 87.34
[1], 160 K, Crystal | – | – | 92.43
[1], 160.43 K, Crystal | – | – | 92.66
[1], 170.36 K, Crystal | – | – | 98.04
[1], 180 K, Crystal | – | – | 103.34
[1], 180.29 K, Crystal | – | – | 103.5
[1], 190.33 K, Crystal | – | – | 109.13
[1], 200 K, Crystal | – | – | 114.64
[1], 200.45 K, Crystal | – | – | 114.9
[1], 210.56 K, Crystal | – | – | 120.76
[1], 220 K, Crystal | – | – | 126.26
[1], 220.64 K, Crystal | – | – | 126.63
[1], 230.69 K, Crystal | – | – | 132.62
[1], 240 K, Crystal | – | – | 138.13
[1], 240.71 K, Crystal | – | – | 138.54
[1], 250.73 K, Crystal | – | – | 144.61
[1], 260 K, Crystal | – | – | 150.24
[1], 260.74 K, Crystal | – | – | 150.69
[1], 270.62 K, Crystal | – | – | 156.67
[1], 280 K, Crystal | – | – | 162.4
[1], 280.51 K, Crystal | – | – | 162.71
[1], 290.52 K, Crystal | – | – | 168.83
[1], 298.15 K, Crystal | – | – | 173.51
[1], 300 K, Crystal | – | – | 174.64
[1], 300.53 K, Crystal | – | – | 174.97
[1], 310.57 K, Crystal | – | – | 180.81
[1], 320 K, Crystal | – | – | 186.29
[1], 320.58 K, Crystal | – | – | 186.63
[1], 331.02 K, Crystal | – | – | 192.65
[1], 340 K, Crystal | – | – | 197.95
[1], 341.47 K, Crystal | – | – | 198.62
[1], 351.79 K, Crystal | – | – | 205.33
[1], 360 K, Crystal | – | – | 210.16
[1], 360.7 K, Crystal | – | – | 210.52
[1], 368.49 K, Crystal | – | – | 215.56
[1], 368.49 K, Liquid | – | – | 279.12
[1], 375.44 K, Liquid | – | – | 281.15
[1], 375.53 K, Liquid | – | – | 281.2
[1], 380 K, Liquid | – | – | 282.47
[1], 382.75 K, Liquid | – | – | 283.25
[1], 389.88 K, Liquid | – | – | 285.37
[1], 400 K, Liquid | – | – | 288.35
[1], 405.81 K, Liquid | – | – | 290.05
[1], 420 K, Liquid | – | – | 294.27
[1], 423.59 K, Liquid | – | – | 295.34
[1], 438.9 K, Liquid | – | – | 299.86
[1], 440 K, Liquid | – | – | 300.19
[2], 5 K, Crystal | – | 0.1164 | –
[2], 10 K, Crystal | – | 1.006 | –
[2], 20 K, Crystal | – | 5.712 | –
[2], 30 K, Crystal | – | 12.49 | –
[2], 40 K, Crystal | – | 19.88 | –
[2], 50 K, Crystal | – | 27.32 | –
[2], 60 K, Crystal | – | 34.57 | –
[2], 70 K, Crystal | – | 41.6 | –
[2], 80 K, Crystal | – | 48.37 | –
[2], 90 K, Crystal | – | 54.94 | –
[2], 100 K, Crystal | – | 61.3 | –
[2], 120 K, Crystal | – | 73.57 | –
[2], 140 K, Crystal | – | 85.45 | –
[2], 160 K, Crystal | – | 97.07 | –
[2], 180 K, Crystal | – | 108.59 | –
[2], 200 K, Crystal | – | 120.05 | –
[2], 220 K, Crystal | – | 131.53 | –
[2], 240 K, Crystal | – | 143.02 | –
[2], 260 K, Crystal | – | 154.55 | –
[2], 280 K, Crystal | – | 166.13 | –
[2], 298.15 K, Crystal | – | 176.67 | –
[2], 300 K, Crystal | – | 177.75 | –
[2], 320 K, Crystal | – | 189.4 | –
[2], 340 K, Crystal | – | 201.04 | –
[2], 360 K, Crystal | – | 212.69 | –
[2], 368.49 K, Crystal | – | 217.66 | –
[2], 368.49 K, Liquid | – | 283.48 | –
[2], 380 K, Liquid | – | 292.12 | –
[2], 400 K, Liquid | – | 306.76 | –
[2], 420 K, Liquid | – | 320.97 | –
[2], 440 K, Liquid | – | 334.8 | –
[2], Crystal, Adiabatic calorimetry | 368.49 | – | –

[2], Liquid
Settings | mass density [kg/m3] | vapor or sublimation pressure [kPa]
369.98 K, Inclined piston gauge | – | 0.1033
373.12 K, Inclined piston gauge | – | 0.1259
374.97 K, Inclined piston gauge | – | 0.1406
383.13 K, Inclined piston gauge | – | 0.2221
384.98 K, Inclined piston gauge | – | 0.2455
393 K, Pycnometric method | 1063 | –
393.13 K, Inclined piston gauge | – | 0.3779
394.98 K, Inclined piston gauge | – | 0.4163
403.12 K, Inclined piston gauge | – | 0.6229
404.96 K, Inclined piston gauge | – | 0.6815
408.13 K, Inclined piston gauge | – | 0.7902
413.12 K, Inclined piston gauge | – | 0.9955
414.97 K, Inclined piston gauge | – | 1.085
418.12 K, Inclined piston gauge | – | 1.249
423.12 K, Inclined piston gauge | – | 1.551
424.96 K, Inclined piston gauge | – | 1.68
429.2 K, Twin ebulliometer | – | 2
429.96 K, Inclined piston gauge | – | 2.071
434.97 K, Inclined piston gauge | – | 2.537
436.27 K, Twin ebulliometer | – | 2.666
439.96 K, Inclined piston gauge | – | 3.091
446.77 K, Twin ebulliometer | – | 4
454.6 K, Twin ebulliometer | – | 5.333
466.26 K, Twin ebulliometer | – | 7.999
475.01 K, Twin ebulliometer | – | 10.67
482.08 K, Twin ebulliometer | – | 13.33
489.42 K, Twin ebulliometer | – | 16.66
495.53 K, Twin ebulliometer | – | 19.93
503.55 K, Twin ebulliometer | – | 25.02
511.63 K, Twin ebulliometer | – | 31.17
519.75 K, Twin ebulliometer | – | 38.56
527.93 K, Twin ebulliometer | – | 47.37
536.16 K, Twin ebulliometer | – | 57.81
544.44 K, Twin ebulliometer | – | 70.11
552.77 K, Twin ebulliometer | – | 84.53
561.14 K, Twin ebulliometer | – | 101.32
569.59 K, Twin ebulliometer | – | 120.78

Settings | Molar enthalpy of transition or fusion [kcal/mol]
[3] | 5.798
